# Earlier results, collected in patent publication US4303671A, “Albumin stabilized prostacyclin” (priority 1980, dated 1981).
# Experiments:
# [1] = FEBS Letters 82:321-324 (1977)
# [2] = human plasma and human serum albumin; FASEB Meeting abstract, 1980
# [3] = under acid conditions, including at physiological pH's
# [4] = system: blood platelet aggregation; details: at the time of its discovery
# [5] = kept in whole blood or plasma; The Lancet, July 29, 1978
stabilization of thromboxane A2 by albumin (in words) [1],stabilization by albumin (in words) [2],chemical stability (in words) [3],Compound,potency to inhibit blood platelet aggregation (in words) [4],protection against degradation (in words) [5]
ability to stabilize thromboxane A2,,,CCCCC[C@H](O)/C=C/[C@H]1O[C@H]2C[C@H](O2)[C@@H]1C/C=C\CCCC(=O)O [thromboxane A2],,
,albumin stabilizes prostacyclin,spontaneously decomposes to 6-oxo-PGF1α,"CCCCC[C@H](O)/C=C/[C@@H]1[C@H]2C/C(=C/CCCC(=O)O)O[C@H]2C[C@H]1O [prostacyclin, 9-deoxy-6,9α-epoxy-(5Z)-5,6-didehydro-PGF1]",most potent prostaglandin-related substance effective to inhibit blood platelet aggregation,probably protected against degradation when kept in whole blood or plasma
